Results from patent US10604523B2, “1-aryl-4-methyl-[1,2,4]triazolo[4,3-a]quinoxaline derivatives” (Janssen Pharmaceutica NV, priority 2011, dated 2020).
Read-outs that look alike come from different tables or passages of the source. Values belong to the compound of their own block, whether it stands above or below them.

Tests used:
[1] = molecular target: T1, Rat recombinant PDE10A (rPDE10A2) (Rattus norvegicus, UniProt Q9QYJ6); test: In vitro assay PDE10A (SPA, 3H-cAMP); assay type: biochemical; conditions: for IC50: read-out: PIC50 PDE10 (converted)
T1 construct: made in house; host or cells: Sf9 insect cells (baculovirus)
T1 sequence (Q9QYJ6 1-794): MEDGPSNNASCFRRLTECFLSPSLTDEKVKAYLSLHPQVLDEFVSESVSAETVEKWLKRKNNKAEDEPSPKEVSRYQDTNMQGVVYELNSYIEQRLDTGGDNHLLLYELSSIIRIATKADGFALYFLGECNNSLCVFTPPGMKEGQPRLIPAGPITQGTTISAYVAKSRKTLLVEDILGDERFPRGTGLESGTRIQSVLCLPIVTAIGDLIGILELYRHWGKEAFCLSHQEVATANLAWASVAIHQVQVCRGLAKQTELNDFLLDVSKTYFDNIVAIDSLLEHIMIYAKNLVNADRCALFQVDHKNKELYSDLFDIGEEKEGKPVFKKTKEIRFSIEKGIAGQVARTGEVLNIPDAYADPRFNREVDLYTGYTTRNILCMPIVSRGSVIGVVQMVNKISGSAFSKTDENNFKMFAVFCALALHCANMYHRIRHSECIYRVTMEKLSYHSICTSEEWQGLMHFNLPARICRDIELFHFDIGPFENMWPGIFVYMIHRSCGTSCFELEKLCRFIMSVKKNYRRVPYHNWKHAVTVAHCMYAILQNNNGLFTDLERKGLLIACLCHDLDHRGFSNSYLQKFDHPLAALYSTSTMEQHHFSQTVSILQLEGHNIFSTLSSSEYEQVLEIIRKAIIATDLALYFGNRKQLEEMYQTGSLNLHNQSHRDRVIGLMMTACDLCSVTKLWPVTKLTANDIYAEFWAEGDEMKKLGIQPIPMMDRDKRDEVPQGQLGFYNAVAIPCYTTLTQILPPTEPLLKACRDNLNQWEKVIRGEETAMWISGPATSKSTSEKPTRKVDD

[2] = tested on: Apomorphine-induced agitation; test: Reversal of Apomorphine-induced Agitation in Rats (APO); assay type: in vivo, rat; conditions: subcutaneous route; for SC Max effect (cumulative agitation score over 60 min): apomorphine 1.0 mg/kg i.v.; for SC LAD (lowest active dose): lowest dose at which ≥67% tested animals respond
Experimental: Apomorphine (1.0 mg/kg, i.v.)-induced agitation was scored every 5 min over the first hour after injection of apomorphine. The score system was: (3) pronounced, (2) moderate, (1) slight, and (0) absent. […] For the present purpose, the cumulative agitation score over the whole 60-min observation period was used as a measure to describe the maximum effect (Max effect).

[3] = -log IC50 expressed in mol/L, rPDE10A2, 60 nM cAMP

Compound: CCNCc1ccc2nc(C)c3nnc(-c4cc(OC(C)C)ccc4Cl)n3c2c1 [Compound B-148]
PIC50 PDE10 [1, 3]: 5.07

Compound: CCCOc1cncc(-c2nnc3c(C)nc4ccc(CNCC)cc4n23)c1 [Compound B-178]
IC50 [1]: > 10 µM

Compound: CCCCOc1cc(-c2nnc3c(C)nc4ccc(CN5CCOCC5)cc4n23)cnc1Cl [Compound B-202]
IC50 [1, 3]: > 10 µM

Compound: CCCCOc1cncc(-c2nnc3c(C)nc4ccc(CN5CCOCC5)cc4n23)c1.Cl [Compound B-17a, 1-(5-Butoxypyridin-3-yl)-4-methyl-8-(morpholin-4-ylmethyl) [1,2,4]triazolo[4,3-a]quinoxaline hydrochloride]
SC Dose at max effect [2]: 40 mg/kg
SC Max effect (cumulative agitation score over 60 min) [2]: 23
SC LAD (lowest active dose) [2]: > 40 mg/kg

Compound: Cc1nc2ccc(CNCc3ccccc3)cc2n2c(-c3ccccc3Cl)nnc12 [Compound B-99]
PIC50 PDE10 [1, 3]: 7.3

Compound: CCCCOc1ccc(Cl)c(-c2nnc3c(C)nc4ccc(CNC(C)C)cc4n23)c1 [Compound B-149]
PIC50 PDE10 [1, 3]: 5.38

Compound: CCNCc1ccc2nc(C)c3nnc(-c4ccccc4Cl)n3c2c1 [Compound B-20, N-{[1-(2-Chlorophenyl)-4-methyl[1,2,4]triazolo[4,3-a]quinoxalin-8-yl]methyl}-ethanamine]
SC Dose at max effect [2]: 10 mg/kg
SC Max effect (cumulative agitation score over 60 min) [2]: 21
SC LAD (lowest active dose) [2]: > 10 mg/kg

Compound: CCCCOc1cncc(-c2nnc3c(C)nc4ccc(CNCC)cc4n23)c1 [Compound B-150]
IC50 [1]: > 10 µM

Compound: Cc1nc2ccc(CN3CCOCC3)cc2n2c(-c3c(F)cccc3Cl)nnc12 [Compound B-23, 1-(2-Chloro-6-fluorophenyl)-4-methyl-8-(morpholin-4-ylmethyl)[1,2,4]triazolo[4,3-a]quinoxaline]
SC Dose at max effect [2]: 40 mg/kg
SC Max effect (cumulative agitation score over 60 min) [2]: 1
SC LAD (lowest active dose) [2]: 0.63 mg/kg

Compound: Cc1nc2ccc(CN(C)C)cc2n2c(-c3cc(OC(C)C)ccc3Cl)nnc12 [Compound B-141]
PIC50 PDE10 [1, 3]: 5.8

Compound: Cc1nc2ccc(CN3CCOCC3)cc2n2c(-c3cc(OC(C)C)ccc3Cl)nnc12 [Compound B-58]
PIC50 PDE10 [1, 3]: 5.73

Compound: Cc1nc2ccc(CN3CCOCC3)cc2n2c(-c3ccccc3Cl)nnc12 [Compound B-19, 1-(2-Chlorophenyl)-4-methyl-8-(morpholin-4-ylmethyl)[1,2,4]triazolo[4,3-a]-quinoxaline]
SC Dose at max effect [2]: 5 mg/kg
SC Max effect (cumulative agitation score over 60 min) [2]: 14
SC LAD (lowest active dose) [2]: 5 mg/kg

Compound: Cc1nc2ccc(CNC(C)C)cc2n2c(-c3cncc(OCC4CC4)c3)nnc12 [Compound B-210]
IC50 [1]: 1.45 µM

Compound: CCNCc1ccc2nc(C)c3nnc(-c4cc(OCC)ccc4Cl)n3c2c1 [Compound B-151a]
PIC50 PDE10 [1, 3]: 6.04

The next lines start with the values.

IC50 [1]: 1.74 µM
Compound: CCCCOc1ccc(F)c(-c2nnc3c(C)nc4ccc(Br)cc4n23)c1 [Compound B-95]

IC50 [1, 3]: 0.0123 µM
Compound: CCNC(=O)c1ccc2nc(C)c3nnc(-c4c(Cl)cccc4Cl)n3c2c1 [Compound B-33]

IC50 [1, 3]: 1.35 µM
Compound: CCNC(=O)c1ccc2nc(C)c3nnc(-c4cccnc4)n3c2c1 [Compound B-143]

IC50 [1, 3]: 1.82 µM
Compound: CCNC(=O)c1ccc2nc(C)c3nnc(-c4cccnc4)n3c2c1 [Compound B-127]

IC50 [1]: 1.78 µM
Compound: CCCOc1ccc(Cl)c(-c2nnc3c(C)nc4ccc(CNCC)cc4n23)c1 [Compound B-111]

PIC50 PDE10 [1, 3]: 5.57
Compound: CCOC(=O)c1ccc2c(c1)nc(C)c1nnc(-c3ccccc3)n12 [Compound B-2b, Ethyl 4-methyl-1-phenyl[1,2,4]triazolo[4,3-a]quinoxaline-7-carboxylate]

IC50 [1]: 0.741 µM
Compound: CCNC(=O)c1ccc2nc(C)c3nnc(-c4cncc(OC)c4)n3c2c1 [Compound B-80]

IC50 [1]: 1.48 µM
Compound: CCCOc1ccc(Cl)c(-c2nnc3c(C)nc4ccc(CN(C)C)cc4n23)c1 [Compound B-112]

IC50 [1]: 5.5 µM
Compound: CCCCOc1ccc(Cl)c(-c2nnc3c(C)nc4ccc(CNCC)cc4n23)c1 [Compound B-101]

IC50 [1]: 3.55 µM
Compound: CCCCOc1ccc(F)c(-c2nnc3c(C)nc4ccc(C#N)cc4n23)c1 [Compound B-120]

IC50 [1]: 0.851 µM
Compound: CCNC(=O)c1ccc2nc(C)c3nnc(-c4cnccc4C)n3c2c1 [Compound B-109]
